Results from US9475779B2, “Substituted bicyclic dihydropyrimidinones and their use as inhibitors of neutrophil elastase activity” (priority 2014, dated 2016).
≈ marks a conversion by molar mass, not a printed value. Like-named read-outs stand apart in the source and are kept apart here.

Key:
Caco-2 cells = test: in vitro; type: in vitro ADME; conditions: pH 7.2
[1] = Metabolic stability with human liver microsomes; type: in vitro ADME; conditions: for half-life at 1 μM: human, pH 7.6, pooled human liver microsomes, read-out: t1/2 INVITRO
physchem = type: physicochemical; conditions: for solubility at 24 h: McIlvaine buffer pH 6.8 containing 2.5% DMSO, pH 6.8, aqueous buffer, kinetic from dmso stock, McIlvaine buffer pH 6.8, 2.5% DMSO
in vitro = in vitro ADME; conditions: human, pH 7.2, 37° C.; for Papp B→A at 10 μM: Caco-2, pH 7.2, Caco-2, basal-to-apical, read-out: PEBA; for Papp A→B at 10 μM: Caco-2, pH 7.2, Caco-2, apical-to-basal, read-out: PEAB
hERG potassium channel = hERG potassium channel (Homo sapiens (Human), UniProt Q12809); test: in vitro
neutrophil elastase [2] = molecular target: T1, neutrophil elastase (Homo sapiens (Human), UniProt P08246); test: biochemical; type: biochemical
Experimental: Human Neutrophil Elastase Assay
All other materials were of the highest grade commercially available.
The following buffers were used: Compound buffer: 100 mM Tris, 500 mM NaCl, adjusted to pH 7.5; Assay buffer: 100 mM Tris, 500 mM NaCl, adjusted to pH 7.5, containing 0.01% BSA.
Assay conditions: Test compounds were prediluted in DMSO and subsequently in compound buffer (5% DMSO final). […] After inactivation of the enzyme, fluorescence intensities were measured at 380 nm excitation and 460 nm emission wavelengths.
Each plate contains wells with a high value control (DMSO+enzyme+substrate) and wells with a low value control (DMSO+inactivated enzyme+substrate). IC50 values were estimated using a sigmoidal concentration response curve with variable slope. Means of low values were taken as 0%, means of high values as 100%.

neutrophil elastase [3] = molecular target: T1, neutrophil elastase; test: biochemical
human hepatocytes = test: Metabolic stability with human hepatocytes; type: in vitro ADME; conditions: well stirred model
Experimental: Assay for the Determination of Metabolic Stability with Human Hepatocytes
The metabolic degradation of the test compound is assayed in a human hepatocyte suspension. Human hepatocytes (typically cryopreserved) are incubated in an appropriate buffer system (e.g. Dulbecco's modified eagle medium plus […]/500 mL, 2.5 mg insulin/500 mL and 3.75 mg/500 mL hydrocortison) containing 5% species serum. Following a (typically) 30 min preincubation in an incubator (37° C., 10% CO2), 5 μl of test compound solution (80 μM; from 2 mM stock solution in DMSO diluted 1:25 with medium) are added into 395 μl hepatocyte suspension (cell density in the range 0.25-5*10^6 cells/mL, typically 1*10^6 cells/mL; final concentration of test compound 1 μM, final DMSO concentration 0.05%). The cells are incubated for six hours (incubator, orbital shaker) and samples (25 μl) are taken at 0, 0.5, 1, 2, 4 and 6 hours. Samples are transferred into acetonitrile and pelleted by centrifugation (5 min). […] The decline of parent compound is analyzed by LC-MS/MS.
The intrinsic clearance CL_[…] is calculated as follows: CL_[…]=Dose/AUC=(C0/CD)/(AUD+clast/k)*1′000/60 (C0: initial concentration in the incubation […], CD: cell density of vital cells [10^6 cells/mL], AUD: area under the data [μM*h], clast: concentration of last data point [μM], k: slope of the regression line for parent decline [h^−1]) […]

cytochrome P450 2C9 = cytochrome P450 2C9 (Homo sapiens (Human), UniProt P11712); test: biochemical
cytochrome P450 2C8 = cytochrome P450 2C8 (Homo sapiens (Human), UniProt P10632); test: biochemical
cytochrome P450 2C19 = cytochrome P450 2C19 (Homo sapiens (Human), UniProt P33261); test: biochemical
[4] = pooled human liver microsomes, 1 μM test compound, 37° C.

cytochrome P450 2C8, sequence (P10632 whole entry, looked up): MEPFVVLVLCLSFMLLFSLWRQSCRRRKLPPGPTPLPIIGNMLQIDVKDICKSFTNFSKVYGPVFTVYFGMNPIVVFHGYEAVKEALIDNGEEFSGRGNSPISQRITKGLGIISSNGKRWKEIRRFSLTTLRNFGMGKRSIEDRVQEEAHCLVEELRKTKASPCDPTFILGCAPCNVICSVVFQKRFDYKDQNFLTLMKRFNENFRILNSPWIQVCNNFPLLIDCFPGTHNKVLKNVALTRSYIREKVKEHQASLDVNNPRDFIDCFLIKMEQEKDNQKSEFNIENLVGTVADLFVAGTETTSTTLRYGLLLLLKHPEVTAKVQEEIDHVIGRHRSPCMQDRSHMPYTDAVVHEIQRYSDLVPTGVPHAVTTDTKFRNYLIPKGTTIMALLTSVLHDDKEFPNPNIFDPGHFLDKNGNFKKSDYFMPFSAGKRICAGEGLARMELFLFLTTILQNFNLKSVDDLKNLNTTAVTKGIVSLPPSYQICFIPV
cytochrome P450 2C19, sequence (P33261 whole entry, looked up): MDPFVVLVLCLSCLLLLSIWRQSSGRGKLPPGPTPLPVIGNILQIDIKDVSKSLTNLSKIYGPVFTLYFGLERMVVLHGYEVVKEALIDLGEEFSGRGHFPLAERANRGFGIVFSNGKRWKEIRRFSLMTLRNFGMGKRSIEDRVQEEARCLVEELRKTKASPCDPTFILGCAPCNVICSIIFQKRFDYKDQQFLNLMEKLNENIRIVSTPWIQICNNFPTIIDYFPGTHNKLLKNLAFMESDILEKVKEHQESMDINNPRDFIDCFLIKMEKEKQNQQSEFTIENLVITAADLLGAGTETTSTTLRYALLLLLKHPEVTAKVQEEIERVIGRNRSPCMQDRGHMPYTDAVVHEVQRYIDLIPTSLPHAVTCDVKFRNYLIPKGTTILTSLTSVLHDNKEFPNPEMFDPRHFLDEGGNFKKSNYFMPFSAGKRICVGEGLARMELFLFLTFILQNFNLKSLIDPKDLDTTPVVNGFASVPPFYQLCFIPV
T1 sequence (P08246 whole entry, looked up): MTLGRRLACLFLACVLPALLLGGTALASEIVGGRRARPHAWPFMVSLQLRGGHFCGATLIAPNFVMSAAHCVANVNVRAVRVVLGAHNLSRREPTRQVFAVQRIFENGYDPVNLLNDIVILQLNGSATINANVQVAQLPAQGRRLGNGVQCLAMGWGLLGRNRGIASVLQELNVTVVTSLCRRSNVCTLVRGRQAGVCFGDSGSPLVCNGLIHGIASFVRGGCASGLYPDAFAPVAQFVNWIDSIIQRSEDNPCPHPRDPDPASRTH
cytochrome P450 2C9, sequence (P11712 whole entry, looked up): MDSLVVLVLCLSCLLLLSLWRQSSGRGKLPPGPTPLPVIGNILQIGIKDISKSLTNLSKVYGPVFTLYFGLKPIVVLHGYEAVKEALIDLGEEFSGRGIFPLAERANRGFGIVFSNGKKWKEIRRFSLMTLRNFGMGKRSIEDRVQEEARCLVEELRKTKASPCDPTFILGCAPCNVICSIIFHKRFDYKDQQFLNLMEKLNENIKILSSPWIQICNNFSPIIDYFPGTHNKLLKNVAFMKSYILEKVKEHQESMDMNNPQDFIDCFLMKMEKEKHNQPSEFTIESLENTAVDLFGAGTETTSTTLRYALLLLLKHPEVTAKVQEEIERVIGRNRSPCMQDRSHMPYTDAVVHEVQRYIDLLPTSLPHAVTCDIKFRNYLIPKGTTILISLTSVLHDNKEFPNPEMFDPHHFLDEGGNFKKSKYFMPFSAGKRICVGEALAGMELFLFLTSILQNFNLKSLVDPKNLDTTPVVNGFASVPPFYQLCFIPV

Row | SMILES | PEAB (Caco-2 cells) [cm/s] | PEBA (Caco-2 cells) [cm/s] | t1/2 INVITRO [1] [min] | Aqueous solubility (physchem) [mg/mL] | Papp B→A at 10 μM (in vitro) [×10⁻⁶ cm/s] | half-life at 1 μM [1, 4] [min] | solubility at 24 h (physchem) [µg/mL] | Papp A→B at 10 μM (in vitro) [×10⁻⁶ cm/s] | inhibition at 10 µM (hERG potassium channel) [%] | IC50 (neutrophil elastase [2]; read-out: IC50) [nM] | EC50 (neutrophil elastase [3]) [nM] | predicted hepatic in vivo blood clearance (human hepatocytes) | IC50 (cytochrome P450 2C9) [µM] | IC50 (cytochrome P450 2C8) [µM] | IC50 (cytochrome P450 2C19) [µM] | IC50 (neutrophil elastase [2]; IC50) [nM] | t1/2 INVITRO [1, 4] [min]
1 | CC[S+]([O-])c1cc(C#N)ccc1C1C2=C(CCC2=O)N(c2cccc(C(F)(F)F)c2)C(=O)N1C (single isomer, unassigned) [Example C.5.2, 3-Ethanesulfinyl-4-[3-methyl-2,5-dioxo-1-(3-trifluoromethyl-phenyl)-2,3,4,5,6,7-hexahydro-1H-cyclopentapyrimidin-4-yl]-benzonitrile] | 0.000016 | 0.000082 | >130 | 0.069 |  |  |  |  |  |  |  |  |  |  |  |  | 
2 | CC[S+]([O-])c1cc(C#N)ccc1C1C2=C(CCC2=O)N(c2cccc(C(F)(F)F)c2)C(=O)N1C (single isomer, unassigned) [Example C.5.1, 3-Ethanesulfinyl-4-[3-methyl-2,5-dioxo-1-(3-trifluoromethyl-phenyl)-2,3,4,5,6,7-hexahydro-1H-cyclopentapyrimidin-4-yl]-benzonitrile] | 0.0000071 |  |  |  | 57 | 110 | 86 (≈ 176 µM) |  |  |  |  |  |  |  |  |  | 
3 | CN1C(=O)N(c2ccnc(C(F)(F)F)c2)C2=C(C(=O)CC2)C1c1ccc(C#N)cc1S(C)(=O)=O (single isomer, unassigned) [Example D.1A, 3-Methanesulfonyl-4-[3-methyl-2,5-dioxo-1-(2-trifluoromethyl-pyridin-4-yl)-2,3,4,5,6,7-hexahydro-1H-cyclopentapyrimidin-4-yl]-benzonitrile] |  |  |  |  | 81 | > 130 |  | 19 | 8 |  |  |  |  |  |  |  | 
4 | CN1C(=O)N(c2cccc(C(F)(F)F)c2)C2=C(C(=O)CC2)[C@H]1c1ccc(C#N)cc1[S+](C)[O-] (single isomer, unassigned) [Example C.2A, 3-Methanesulfinyl-4-[3-methyl-2,5-dioxo-1-(3-trifluoromethyl-phenyl)-2,3,4,5,6,7-hexahydro-1H-cyclopentapyrimidin-4-yl]-benzonitrile] | 0.000013 | 0.000073 |  |  |  | > 130 | 58 (≈ 122 µM) |  | 7 | < 1 | 2 | 3 % human hepatic blood flow | > 50 | > 50 | > 50 |  | 
5 | CCS(=O)(=O)c1cc(C#N)ccc1C1NC(=O)N(c2cccc(C(F)F)c2)C2=C1C(=O)CC2 (single isomer, unassigned) [Example D.5A, 4-[1-(3-Difluoromethyl-phenyl)-2,5-dioxo-2,3,4,5,6,7-hexahydro-1H-cyclopentapyrimidin-4-yl]-3-ethanesulfonyl-benzonitrile] |  |  |  |  | 78 | > 130 | 67 (≈ 142 µM) | 7.5 |  |  | 1 |  |  |  |  | 2.2 | 
6 | CN1C(=O)N(c2cccc(C(F)(F)F)c2)C2=C(C(=O)CC2)C1c1ccc(C#N)cc1CO (single isomer, unassigned) [Example A.1A, 3-Hydroxymethyl-4-[3-methyl-2,5-dioxo-1-(3-trifluoromethyl-phenyl)-2,3,4,5,6,7-hexahydro-1H-cyclopentapyrimidin-4-yl]-benzonitrile] |  |  |  |  | 98 |  | 58 (≈ 131 µM) | 53 | 7 |  | 2 |  | > 50 | > 50 | > 50 | < 1 | 
7 | CN1C(=O)N(c2cccc(C(F)(F)F)c2)C2=C(C(=O)CC2)[C@H]1c1ccc(C#N)cc1[S+](C)[O-] (single isomer, unassigned) [Example C.1B, 3-Methanesulfinyl-4-[3-methyl-2,5-dioxo-1-(3-trifluoromethyl-phenyl)-2,3,4,5,6,7-hexahydro-1H-cyclopentapyrimidin-4-yl]-benzonitrile] | 0.0000037 |  |  | 0.061 | 41 |  |  |  |  | < 1 | 1 |  |  |  |  |  | 93
8 | CCNC(=O)N1C(=O)N(c2cc(C(F)(F)F)ccn2)C2=C(C(=O)CC2)C1c1ccc(C#N)cc1S(C)(=O)=O (stereo not shown) [D.4.5] |  |  |  |  | 67 | > 130 | 78 (≈ 142 µM) | 7.3 |  | < 1 | 1 |  |  |  |  |  | 
9 | CN1C(=O)N(c2cccc(C(F)(F)F)c2)C2=C(C(=O)CC2)C1c1ccc(C#N)cc1C(C)(C)O (stereo not shown) [Example A.2, 3-(1-Hydroxy-1-methyl-ethyl)-4-[3-methyl-2,5-dioxo-1-(3-trifluoromethyl-phenyl)-2,3,4,5,6,7-hexahydro-1H-cyclopentapyrimidin-4-yl]-benzonitrile] |  |  |  |  | 80 | > 130 |  | 92 |  | < 1 | 1 |  |  |  |  |  | 
10 | CCS(=O)(=O)c1cc(C#N)ccc1C1C2=C(CCC2=O)N(c2ccnc(C(F)(F)F)c2)C(=O)N1C (single isomer, unassigned) [Example D.3B, 3-Ethanesulfonyl-4-[3-methyl-2,5-dioxo-1-(2-trifluoromethyl-pyridin-4-yl)-2,3,4,5,6,7-hexahydro-1H-cyclopentapyrimidin-4-yl]-benzonitrile] |  |  |  |  | 85 | 120 |  | 21 |  | 1.4 | 1 |  |  |  |  |  | 
11 | CCNC(=O)N1C(=O)N(c2ccnc(C(F)(F)F)c2)C2=C(C(=O)CC2)C1c1ccc(C#N)cc1S(=O)(=O)CC (single isomer, unassigned) [Example D.4.1A, 4-(4-cyano-2-ethanesulfonyl-phenyl)-2,5-dioxo-1-(2-trifluoromethyl-pyridin-4-yl)-1,2,4,5,6,7-hexahydro-cyclopentapyrimidine-3-carboxylic acid ethylamide] |  |  |  |  | 61 | > 130 | 81 (≈ 144 µM) | 3.6 |  |  | < 1 |  |  |  |  | < 1 | 
12 | CN1C(=O)N(c2cccc(C(F)(F)F)c2)C2=C(C(=O)CC2)[C@H]1c1ccc(C#N)cc1S(=O)(=O)CCO [Example B.1.2B] |  |  |  |  | 120 | > 130 | 73 (≈ 141 µM) | 12 | 12 |  | 1 |  | > 50 | > 50 | > 50 | < 1 | 
